US7626044B2, “Triptolide derivatives and their uses” (priority 2002, dated 2009)
Values joined by “and” are separate entries in the source; they are usually repeats but may differ in a detail not shown here. Identical values can stand only once.

What was measured:
[1] = test system: DNFB-induced mouse DTH response; assay: DNFB-induced mouse delayed type hypersensitivity response (DTH); format: in vivo; conditions: Balb/c mice
Protocol: Female Balb/c mice (age of 6-8 wk) were randomly divided into groups and immunized with 20 μl 0.5% DNFB solution in absolute acetone-olive oil (4:1) on each hind foot on day 0 and 1;
7-9 days after the initial immunization, mice were boosted with 10 μl 0.4% DNFB on both sides of the left ear, whereas the right ear was treated with vehicle alone;
Compounds were administered intraperitoneally (i.p.) or orally (p.o.) to the mice 1 h before DNFB booster immunization and 12 h later.
Ear swelling and other indexes were assessed 24-48 h after booster immunization.
Note: Female ICR mice (age of 6-8 wk) were immunized with 0.7% DNFB solution and boosted with 0.6% DNFB solution.

[2] = test system: T lymphocyte; assay: ConA induced T-lymphocyte proliferation ([3H]thymidine); format: cell-based, mouse; conditions: 48 h
Protocol: (§1) Mice were sacrificed by cervical dislocation, and spleens were collected under sterile conditions then teased through a nylon mesh. Erythrocytes were lysed. Cells were washed and resuspended at 5×10^6/ml in RPMI-1640 media containing 10% FBS. For one 96 well plate assay, 100 pt of cells, 50 μl of sample and 50 μl of ConA/LPS were added into each well with the final volume 200 μl. The control wells were set up with 50 μl of RPMI-1640 media instead of ConA/LPS.
(§2) Plates were incubated for 48 h (ConA) or 60 h (LPS), respectively, at 37° C., 5% CO2 in a humidified incubator. In the last 8 h of incubation, 25 μl (1.9×10^10 Bq) of [^3H]thymidine was added. After plates were incubated for 48 h, the plates (ConA) were stored at −20° C., then after another 12 h, the plates (LPS) were stored at −20° C.
(§3) At the end of incubation, pulsed cells were harvested on a glass filter using a cell harvester ([…]96®, TOMTEC) and allowed to dry. Incorporation of radioactive thymidine was determined by using liquid Scintillation and Luminescence Counters (MicroBeta Trilux®, PerkinElmer).

[3] = Acute toxicity (LD50) test in mice, intraperitoneal injection; format: in vivo, mouse; conditions: mouse, in vivo, ip; mice, single intraperitoneal injection, 14 days, Bliss' method
Protocol: Mice were single administered with LLDT-8 by intraperitoneal injection, and observed for clinical signs of toxicity immediately and the following 14 days. Necropsy was performed on all animals that died and on all survivors at the end of the 2-week study. Death was seen from the next day after treatment and reached a peak at the 2-4 day. All gross pathological changes should be recorded for each animal. There was no gender difference in survival.
LLDT-8 is much less toxic than its parent compound, […].

[4] = test system: lymphocyte; assay: MTT cytotoxic assay; format: cell-based, mouse; conditions: Lymphocyte, read-out: IC50 (concentration required to reduce the viability of cells by 50%); mouse spleen cells, 48 hours, MTT
Protocol: (§4) Mice were sacrificed by cervical dislocation, and spleens were collected under sterile conditions then teased through a nylon mesh. Erythrocytes were lysed. Cells were washed and resuspended at 5×10^6/ml in RPMI-1640 media supplemented with 10% FBS.
(§5) For one 96 well plate assay, 90 μl of cells, 45 μl of sample and 45 μl of RPMI-1640 media with 10% FBS were added into each well with the final volume 180 μl. The negative control wells (containing 90 μl of RPMI-1640 media with 10% FBS and 90 pt of cells), blank control (180 μl of RPMI-1640 media with 10% FBS) were also performed. Incubate plate for 48 hours at 37° C., 5% CO2 in a humidified incubator. 18 μl of MTT solution (5 mg/ml) was added for 6-7 h.
(§6) 90 μl of MTT lysis solution was added to each well followed by a further incubation at 37° C. for 6-7 h. And the absorbance was measured at 570 nm using a plate reader.

[5] = MTT cytotoxic assay; format: cell-based, mouse; conditions: mouse; restated; read-out: IC50 (lymphocyte cytotoxicity, restated)
Protocol: as §4, §5, §6

[6] = test system: B lymphocyte; assay: LPS induced B-lymphocyte proliferation ([3H]thymidine); format: cell-based, mouse; conditions: 60 h
Protocol: as §1, §2, §3

For `CC(C)[C@]12O[C@H]1[C@@H]1O[C@]13[C@]1(O[C@H]1C[C@H]1C4=C(CC[C@@]13C)C(=O)OC4)[C@@H]2O` [LLDT-2, triptolide], the “Body weight after i.p.” value ([1]; Table 8, i.p., dosage 40 (mg/kg), control 21.9) was 21.2 g, the “Body weight before i.p.” value ([1]; Table 8, i.p., dosage 40 (mg/kg), control 22.4) was 21.5 g and the “Ear swelling X ± SD” value ([1]; Table 8, i.p., dosage 40 (mg/kg), control 22.7 ± 2.1) was 17.7 ± 5.7 mg. The Right ear ([1]; Table 8, i.p., dosage 40 (mg/kg), control 26.4) was 30.2 mg, the Left ear ([1]; Table 8, i.p., dosage 40 (mg/kg), control 49.1) was 47.9 mg and the Spleen ([1]; Table 8, i.p., dosage 40 (mg/kg), control 154.0) was 151.4 mg. For the same compound, the “Body weight after (i.p.)” value ([1]; Table 9, p.o., dosage 0.2 mg/kg, control 19) was 20 g, the “Body weight before (i.p.)” value ([1]; Table 9, p.o., dosage 0.2 mg/kg, control 20) was 21 g and the Ear swelling ([1]; Table 9, p.o., dosage 0.2 mg/kg, control 23.4) was 16.7 mg. For the same compound, the Right ear ([1]; Table 9, p.o., dosage 0.2 mg/kg, control 25.9) was 24.5 mg, the Left ear ([1]; Table 9, p.o., dosage 0.2 mg/kg, control 49.3) was 41.2 mg and the Spleen ([1]; Table 9, p.o., dosage 0.2 mg/kg, control 125.8) was 127.0 mg. For the same compound, the “ED50 for inhibiting T lymphocyte proliferation induced by ConA” value [2] was 2.44 ng/mL, the EC50 ([2]; Mus musculus, T-lymphocyte, read-out: ED50 for inhibiting T lymphocyte proliferation induced by ConA) was 6.8 nM and the LD50 at 14 days [3] was 0.5 mg/kg. For the same compound, the IC50 [4] was 0.00074 µg/mL and 2 nM, the IC50 [5] was 2 nM and the “ED50 for inhibiting B lymphocyte proliferation induced by LPS” value [6] was 2.38 ng/mL. The EC50 ([6]; Mus musculus, Lymphocyte, read-out: ED50 for inhibiting B lymphocyte proliferation induced by LPS) was 6.6 nM.
